Measured values published in patent publication US20250314644A1, “METHODS COMPRISING DETECTION OF ADP-HEPTOSE” (CHILDREN'S HOSPITAL MEDICAL CENTER, priority 2023, published 2025).

What was measured:
[1] = test system: Dnmt3a^−/− HSCs relative to WT HSCs; test: In vitro HSC competition assay; format: cell-based, mouse; details: co-culture, ADP-heptose for 14 days
Excerpt: The polyvinyl alcohol-based in vitro HSC expansion protocol was adapted as previously described. (Wilkinson, A. C., et al. Long-term ex vivo haematopoietic-stem-cell expansion allows nonconditioned transplantation. Nature 571, 117-121 (2019) and Wilkinson, A. C., Ishida, R., Nakauchi, H. & Yamazaki, S. Long-term ex vivo expansion of mouse hematopoietic stem cells. Nat Protoc 15, 628-648 (2020).) 50 HSCs from WT-GFP (C57BL/6-Tg(UBC-GFP)30Scha/J, Cat no. 004353, Jackson Labs) and 50 HSCs from Dnmt3a^−/− mice were sorted directly into each well of a fibronectin-coated 96-well plate (Cat no. 08-774-60, Fisher Scientific) with Ham's F12 nutrient mix media (Cat no. 11765054, Thermo Fisher Scientific) containing final concentrations of 1× penicillin-streptomycin-glutamine (Cat no. 10378-016, Thermo Fisher Scientific), 10 mM HEPES (Cat no. 15630080, Thermo Fisher Scientific), 1× insulin-transferrin-selenium-ethanolamine (ITS-X, Cat no. 51500056, Thermo Fisher Scientific), 100 ng/mL recombinant murine TPO (Cat no. […] After 14 days of ADP-heptose treatment, cells were harvested, counted by trypan blue exclusion assay, and analyzed by flow cytometry. To enumerate cells, a defined number of CountBright Absolute Counting Beads (Thermo Fisher Scientific, Cat no. C36950) were added to each sample and cell count was back calculated to the proportion of the total that were run through the cytometer.

[2] = test system: Dnmt3a^−/−; Alpk1^−/− HSPCs; test: NF-κB activation in vitro (immunoblot); format: cell-based, mouse
[3] = test system: healthy BM cells; test: Xenograft of healthy cells in NSG mice treated with ADP-heptose; format: in vivo, human; details: immunocompromised mice
Method: NOD.Cg-Prkdc^scidIl2rg^tm1Wj1/SzJ (NSG)^75 were bred and maintained by the CCHMC Comprehensive Mouse Core. For patient derived xenografts, NSG mice (sub-lethally conditioned with 2 Gy of whole-body irradiation) were injected tail vein with healthy CD34+ cells (1×10^6 cells per mouse) and MDS patient cells (5×10^6 cells per mouse) in 200 μl of sterile PBS. Mice were then given sterile water or ADP-heptose (0.5 mg/kg) dissolved in sterile water at the indicated times. Mice were monitored for human engraftment in BM aspirates Briefly, 1×10^6 BM cells from each sample were incubated with huCD45 (Cat no. 555485, BDPharmingen) and huCD33 (Cat no. 555450, BDPharmingen) antibodies diluted 1:100 in a solution of PBS, 0.2% FBS for 30 minutes on ice. Cells were washed once with PBS, resuspended in PBS with 0.2% FBS, and immediately analyzed by flow cytometry.

[4] = test system: Dnmt3a^−/−; Alpk1^−/− HSCs; test: ADP-heptose treatment of low-dose irradiated chimeric mice: donor HSC number, EdU proliferation, secondary transplant; format: in vivo, mouse
Excerpt: To model pre-leukemic clonal hematopoiesis, chimeric mice were generated as aas follows. Briefly, mixture of 1×10^6 whole bone marrow cells (WBM) were obtained from Poly (I:C) treated wild-type (Dnmt3a^+/+; MxCre^+, called Dnmt3a^WT) or mutant mice (Dnmt3a^f/f; MxCre^+, called Dnmt3a^KO) or double mutant mice (Dnmt3a^f/f; MxCre^+; Alpk1^KO, called Dnmt3a^KO; Alpk1^KO) (CD45.2^+), and transplanted into low-dose (2.5 Gy) irradiated recipient mice (CD45.1^+; 6-10 weeks of age). 8 weeks post-transplant, chimeric mice were treated with either water (H2O) or DSS (2.5%) for 1 week, and allowed to recover for 1 more week on water after which flow cytometry was performed on BM. In separate experiment, chimeric mice were pre-treated with broad spectrum antibiotics (ABX) for 4 weeks, and then subjected to DSS for 1 week after which flow cytometry performed on BM. In a separate set of experiment, chimeric mice were treated with either H2O or ADP-heptose (0.5 mg/kg) for 2 weeks, and flow cytometry performed after 2 more weeks on BM. In all the experiments, secondary transplantation was performed by purifying donor HSCs (CD45.2^+Lin^−Sca-1^+c-Kit^+Flk2^−CD150^+CD48^−) and transplanting 100 HSCs with 200,000 helper WBM cells (CD45.1+) into lethally irradiated (8 Gy) recipient mice (CD45.1^+), and donor chimerism in PB examined by flow cytometry.

## Nc1ncnc2c1ncn2[C@@H]1O[C@H](COP(=O)(O)OP(=O)(O)O[C@@H]2O[C@H]([C@H](O)CO)[C@@H](O)[C@H](O)[C@@H]2O)[C@@H](O)[C@H]1O [ADP-heptose, ADP-D-glycero-β-D-manno-heptose]
[1]
  in vitro competition of Dnmt3a^−/− HSCs relative to WT HSCs: competitive advantage
[2]
  NF-κB activation upon ADP-heptose stimulation: unable to activate NF-κB
[3]
  engraftment of healthy BM cells: no effect
[4]
  proliferation of HSCs in vivo (EdU): completely abrogated
[4]; ADP-heptose administration
  expansion and self-renewal in recipient mice: unable to expand nor self-renew
